According to PubChem BioAssay (NCI):
Where “and” joins values, the source holds several entries; their conditions need not be identical. Equal entries are not always repeated.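 Growth conditions: 96-well plates. Treatment: test compound, 48 hours, 5 concentrations. Analysis: linear interpolation between bracketing concentrations; unreached endpoints set to highest concentration. At the GI50, growth is halved. At the TGI there is no net growth.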

test system: TK-10 renal; test: growth of human tumour cells (NCI), 48 h

SMILES	TGI [µM]	GI50 [µM]
C=CCN1CCC23c4c5ccc(O)c4OC2C(=NN=C2CCC4(O)C6Cc7ccc(O)c8c7C4(CCN6CC=C)C2O8)CCC3(O)C1C5 (configuration not stated)	43.7	–
CN(C)CCNC(=O)c1cccc2c(Nc3ccc(S(=O)(=O)N=C(N)N)cc3)c3ccccc3nc12	> 100	–
COC(=O)C1=C(C(=O)OC)C2=S(SC3=C2CCCC3)S1 (configuration not stated)	> 100	–
O=C(NNc1ccccc1)C(=O)NNc1ccccc1	> 100	0.919
CC1(C)CC(=O)CC(=Nc2ccc([N+](=O)[O-])cc2)C1	> 100	–
Cn1cc(-c2csc(-c3c[nH]c4ccc(Br)cc34)n2)c2cnccc21	5.84	1.97
CCOC(=O)c1c(-c2ccc(OC)cc2)c(C#N)c2c(C#N)c(N)nn2c1N	69.2	16.4

test system: LOX IMVI melanoma; test: growth of human tumour cells (NCI), 48 h

SMILES	GI50 [µM]	TGI
Cn1c(Nc2ccc(C(F)(F)F)cc2)nc2cc(Oc3ccnc(-c4ncc(C(F)(F)F)[nH]4)c3)ccc21	0.0599	1.78 µM
COc1ccc(-c2nsc3c2NC(=O)CC3c2cccc(OC)c2)cc1 (configuration not stated)	0.689	> 100 µM
C[C@@]12CCC[C@@](C)(C(=O)O)C1CC[C@]13CC(=O)[C@](CO)(C1)[C@@H](O)CC32 (some centres not stated)	> 100	> 100 µM
O=[N+]([O-])c1ccc(CI)cc1	1.3	2.9 µM
Cn1cnnc1Sc1c([N+](=O)[O-])ncn1C	–	> 100 µM
C=CCC1(CN(C)C)CC/C(=C\c2ccc(Cl)cc2)C1=O (configuration not stated)	–	52 µM
C[Si](C)(C)/C(I)=C/CO	–	42.1 µM
C[N+](C)(C)CC1CCC/C1=N\OC(=O)c1ccccc1 (configuration not stated)	–	> 100 µM
CC(=O)N1CCC(=O)/C(=C/c2ccccc2)C1	–	32.9 µM
CCCCCCCN=C(N)c1ccc(N2CCN(c3ccc(C(N)=NCCCCCCC)cc3)CC2)cc1	1.52	19.1 µM
C[Si](C)(C)/C(Br)=C\CCN1C(=O)CCC1=O	–	> 100 µM
Cc1ccc(S(=O)OCc2c(C)c(C)c(COS(=O)c3ccc(C)cc3)c(C)c2C)cc1 (configuration not stated)	–	> 100 µM
COc1ccc2c(c1)c[n+](C)c1c3cc(OC)c(OC)cc3ccc21	–	2.65 µM and 4.96 µM
CSc1ccccc1C#C/C=C\C#Cc1ccccc1N	9.52	25.2 µM
O=C1c2cc3c(cc2-c2c1c1cc(Cl)c(Cl)cc1c(=O)n2C[C@H](O)CO)OCO3	< 0.01	0.0117 µM
CC(C)(C)[Si](C)(C)OC1C(=O)C[C@H]2CCCC[C@@H]12 (some centres not stated)	–	> 100 µM
CCN(CC)CCSc1c2ccccc2nc2c(OC)ccc(OC)c12	–	> 41.2 µM

SMILES	GI50 [µM]	TGI
COc1cc(/C=C\c2cc(OC)c(OC)c(OC)c2)cc(N/C=C\C(=O)c2cc(OC)c(OC)c(OC)c2)c1OC	3.54	> 100 µM
CCOC(=O)c1ccc(N=Nc2cc(C(=O)OCC)ccc2O)cc1	–	> 100 µM
[N-]=[N+]=N/C1=C/CCCCC(=O)C1	–	> 100 µM
BrCc1cccc(C[P+](c2ccccc2)(c2ccccc2)c2ccccc2)c1	14	> 100 µM
Cc1ccc(NC(=O)CCc2nnc(N)o2)cc1	–	> 100 µM
Cc1cc(N(CCCNc2ccnc3cc(Cl)ccc23)Cc2ccc3c(c2)OCO3)nc(N2CCOCC2)n1	0.216	0.534 µM
CCOC(=O)C1SC(=Nc2ccccc2)N=C1C (configuration not stated)	–	> 100 µM
O=C1CCC(=O)c2c1c(O)c1ccncc1c2O	–	27.4 µM
CN(C)c1ccc(N=Nc2ccccn2)c(O)c1	0.258	> 100 µM
C=CCN1CCC23c4c5ccc(O)c4OC2C(=NN=C2CCC4(O)C6Cc7ccc(O)c8c7C4(CCN6CC=C)C2O8)CCC3(O)C1C5 (configuration not stated)	–	41.1 µM
CN(C)CCNC(=O)c1cccc2c(Nc3ccc(S(=O)(=O)N=C(N)N)cc3)c3ccccc3nc12	–	20.8 µM
COC(=O)C1=C(C(=O)OC)C2=S(SC3=C2CCCC3)S1 (configuration not stated)	–	7.05 µM
O=C(NNc1ccccc1)C(=O)NNc1ccccc1	4.34	> 100 µM
CC1(C)CC(=O)CC(=Nc2ccc([N+](=O)[O-])cc2)C1	–	38.8 µM
Cc1nc2cc(Nc3nc(Nc4ccc(F)cc4)nc(-c4cccs4)n3)ccc2n1Cc1ccccc1	2.36	5.85 µM
CCOC(=O)c1c(-c2ccc(OC)cc2)c(C#N)c2c(C#N)c(N)nn2c1N	4.81	> 100 µM
